# Reference: patent US20240108740A1, “THERAPEUTIC COMPOSITIONS INCLUDING SPN10 AND USES THEREOF” (Stealth BioTherapeutics Inc., priority 2022, published 2024)
# Residues, ends and D or L forms follow the SMILES beside them.
# What was measured:
# Caco-2 cells = test: Example 12: 3NP-induced mitochondrial depolarization (TMRM, CLSM); assay type: cell-based, human; conditions: 3NP 10 mM, 4 hours
# Protocol: Caco-2 cells will be treated with 3NP (10 mM) alone or in the presence of peptide conjugates (0.1 μM); aromatic-cationic peptides (an equivalent molar dose of aromatic-cationic peptide based on the concentration of the aromatic-cationic peptide administered in the peptide conjugate treatment group); SPN10(s) (an equivalent molar dose of SPN10 based on the concentration of SPN10 administered in the peptide conjugate treatment group); or SPN10(s) in combination with aromatic-cationic peptides (e.g., an equivalent molar dose of SPN10 based on the concentration of SPN10 administered in the peptide conjugate treatment group and an equivalent molar dose of aromatic-cationic peptide based on the concentration of aromatic-cationic peptide administered in the peptide conjugate treatment group) for 4 hours, and then incubated with TMRM and examined by CLSM. It is expected that 3NP-treated cells will display reduced fluorescence compared to control cells, which indicates mitochondrial depolarization.
# N2A cells = test: Example 24: lipid peroxidation (4-HNE Michael adducts); assay type: cell-based; conditions: t-BHP 1 mM, 3 hours
# Protocol: Lipid peroxidation will be evaluated by measuring 4-HNE Michael adducts. 4-HNE is one of the major products of the peroxidation of membrane polyunsaturated fatty acids. N2A cells will be seeded on a glass dish 1 day before t-BHP treatment (1 mM, 3 hours, 37° C., 5% CO2) alone or in the presence of peptide conjugates (10^−8 to 10^−10 M), aromatic-cationic peptides (an equivalent molar dose of aromatic-cationic peptide based on the concentration of the aromatic-cationic peptide administered in the peptide conjugate treatment group); SPN10(s) (an equivalent molar dose of SPN10 based on the concentration of SPN10 administered in the peptide conjugate treatment group); or SPN10(s) in combination with aromatic-cationic peptides (e.g., an equivalent molar dose of SPN10 based on the concentration of SPN10 administered in the peptide conjugate treatment group and an equivalent molar dose of aromatic-cationic peptide based on the concentration of aromatic-cationic peptide administered in the peptide conjugate treatment group). Cells will be washed twice with PBS, fixed 30 minutes with 4% paraformaldehyde in PBS at RT, and washed 3 additional times with PBS. […] Cells will be mounted in Vectashield and imaged using a Zeiss fluorescence microscope using an excitation wavelength of 460±20 nm and a longpass filter of 505 nm for emission.
# isolated mitochondria = test: Example 13: mitochondrial swelling (A540) and cytochrome c release (ELISA)
# Description: MPT pore opening results in mitochondrial swelling. […] Mitochondrial suspensions will be centrifuged and the amount of cytochrome c in the pellet and supernatant will be determined using a commercially available ELISA kit.
# [1] = tested on: Human low density lipoprotein (LDL); test: Example 18: LDL oxidation (conjugated dienes at 234 nm); assay type: biochemical; conditions: 10 mM, 5 hours at 37° C.
# Protocol: Human low density lipoprotein (LDL) will be prepared fresh from stored plasma. LDL oxidation will be induced catalytically by the addition of 10 mM […], and the formation of conjugated dienes will be monitored at 234 nm for 5 hours at 37° C. (B. Moosmann and C. Behl, Mol. Pharmacol. 61:260-268 (2002).
# Gαq mice = test: Gαq overexpression-induced heart failure; assay type: in vivo, mouse; conditions: administered from 12 to 16 weeks of age
# Description: It is anticipated that peptide conjugates, aromatic-cationic peptides or SPN10(s) (with or without aromatic-cationic peptides) will partially rescue Gαq overexpression-induced heart failure. Gαq protein is coupled to receptors for catecholamines and Ang II, all of which are known to be key mediators in hypertensive cardiovascular diseases. To extend these observations to a model of chronic catecholamine/Ang II stimulation, a genetic mouse model with cardiac specific overexpression of Gαq will be used, which causes heart failure in mice by 14-16 weeks of age. The Gαq mice in this study will have impairment of systolic function at 16 weeks age, which will be shown by a substantial decline in FS, with enlargement of the LV chamber, impairment of diastolic function indicated by decreased Ea/Aa, and worsening of myocardial performance index (MPI).
# Sprague Dawley rats [2] = test: Example 51: burn-induced hypermetabolism and UCP-1 expression in brown adipose tissue; assay type: in vivo, rat
# Description: Methods. Sprague Dawley rats will be randomly divided into the following groups; sham (S), sham with saline vehicle (SSal), sham with peptide conjugate-treatment (SC), sham with aromatic-cationic peptides (SC2), sham with SPN10(s) (SC3), sham with SPN10(s)+aromatic-cationic peptides (SC4), burn with saline vehicle (BSal), burn with peptide conjugate-treatment (BC), burn with aromatic-cationic peptides (BC2), burn with SPN10(s) (BC3) and burn with SPN10(s)+aromatic-cationic peptides (BC4). The dorsal aspect of burn subjects will be immersed into 100° C. water for 12 seconds to produce third degree 30% TBSA burns under general anesthesia. Sham burn will be produced by immersion in lukewarm water. Subjects will receive 40 mL/kg intraperitoneal saline injection for the resuscitation following the injury. A venous catheter will be placed surgically into the right jugular vein subsequent to sham or burn injury. […] Indirect calorimetry will be performed for 24 hours at 6 days after burn injury in a TSE Indirect Calorimetry System (TSE Co., Germany), and VO2, VCO2 and energy expenditure will be recorded every six minutes. Interscapullar brown adipose tissue will be collected after the indirect calorimetry, and UCP-1 expression in the brown adipose tissue will be evaluated by Western blot.
# Sprague Dawley rats [3] = test: Renal ischemia/reperfusion, no-reflow zone in the kidney; assay type: in vivo, rat
smiles,measurement,setting,value
"N=C(N)NCCC[C@H](NC(=O)[C@@H](N)Cc1c[nH]c2ccccc12)C(=O)N[C@@H](Cc1c[nH]c2ccccc12)C(=O)N[C@@H](CCCCN)C(N)=O [SPN10, H-L-Trp-L-Arg-L-Trp-L-Lys-NH2] (H-WRWK-NH2)",mitochondrial depolarization caused by 3NP,Caco-2 cells,protect against mitochondrial depolarization
same,lipid peroxidation in cells treated with t-BHP,N2A cells,inhibit lipid peroxidation
same,mitochondrial swelling induced by MPP^+,isolated mitochondria,prevent mitochondrial swelling
same,swelling and cytochrome c release induced by Ca^2+ overload,isolated mitochondria; pre-treatment,inhibit swelling and cytochrome c release
same,rate of LDL oxidation,[1],dose-dependently inhibit the rate of LDL oxidation
same,LV chamber enlargement,Gαq mice,slightly reduced
same,systolic function and myocardial performance,Gαq mice,significantly ameliorate systolic function and improve myocardial performance
same,UCP-1 levels in brown adipose tissue (Western blot),"Sprague Dawley rats [2]; burn groups BC, BC2, BC3, BC4 vs BSal",lower than in the BSal group
same,"increase in VO2, VCO2, and energy expenditure after burn",Sprague Dawley rats [2]; infused for 7 days,significantly attenuate this effect
same,anatomic zone of no-reflow in the kidney,Sprague Dawley rats [3]; 30 minutes before ischemia and before reperfusion,prevent or reduce
same,"one or more of BUN, serum creatinine, and glomerular filtration rate",Sprague Dawley rats [3]; versus untreated control subjects,improve
